Measurements: US20250144067A1, “PERSONALIZED STARVATION THERAPY FOR CANCER” (Faeth Therapeutics, Inc., priority 2021, published 2025)
Counter-ions that a name gives are not always drawn. Like-named read-outs stand apart in the source and are kept apart here.

What was measured:
[1] = system: NCI-H292 lung cancer cells; assay: FDA drug screening, complete media vs cholesterol-free media without statin (TABLE 1); assay type: cell-based, human
[2] = system: NCI-H292 lung cancer cells; assay: FDA drug screening, complete media vs cholesterol-free media with simvastatin (TABLE 2); assay type: cell-based, human
[3] = NCI-H292 cells, cholesterol-free media without statin
[4] = complete vs cholesterol-free media, greater than 0 enhanced anti-cancer activity, about 0 neutral, below 0 antagonists
[5] = NCI-H292 cells, cholesterol-free media with simvastatin 0.04 μM, cell growth value in FDA drug screen
[6] = NCI-H292 cells, complete media, cell growth value in FDA drug screen
[7] = complete media minus cholesterol-free media + simvastatin, >0 enhanced anti-cancer activity, about 0 neutral, <0 antagonist
[8] = NCI-H292 cells, drug in cholesterol-free media with simvastatin 0.04 μM
[9] = NCI-H292 cells, drug in complete media
[10] = complete media vs cholesterol-free media + simvastatin (0.04 μM), >0 enhanced anti-cancer activity, about 0 neutral, <0 antagonist
[11] = NCI-H292 cells, FDA drug library screen, cholesterol-free media with simvastatin 0.04 μM
[12] = NCI-H292 cells, FDA drug library screen, complete media
[13] = Complete minus Cholesterol-free, greater than 0 enhanced anti-cancer activity, about 0 neutral, below 0 antagonists
[14] = NCI-H292 cells in cholesterol-free media without statin
[15] = NCI-H292 cells in complete media
[16] = NCI-H292 cells, FDA library drug in cholesterol-free media with simvastatin 0.04 μM
[17] = NCI-H292 cells, FDA library drug in complete media
[18] = Complete minus Cholesterol-free, greater than 0 enhanced anti-cancer activity, about 0 neutral, below 0 antagonist
[19] = NCI-H292 cells, FDA drug library screen, cholesterol-free media without statin
[20] = NCI-H292 cells, cholesterol-free media without statin, FDA drug library screen
[21] = NCI-H292 cells, complete media, FDA drug library screen
[22] = complete vs cholesterol-free media, >0 enhanced anti-cancer activity, about 0 neutral, <0 antagonist
[23] = Complete minus Cholesterol-free, >0 enhanced anti-cancer activity, about 0 neutral, <0 antagonist
[24] = NCI-H292 cells, cholesterol-free media with simvastatin 0.04 μM, FDA drug library screen (TABLE 2)
[25] = NCI-H292 cells, complete media, FDA drug library screen (TABLE 2)
[26] = complete media minus cholesterol-free media + simvastatin (0.04 μM), >0 enhanced anti-cancer activity, about 0 neutral, <0 antagonist

## O=C(O)CCNC(=O)c1ccc(/N=N/c2ccc(O)c(C(=O)O)c2)cc1 [Balsalazide]
[1]; [3]
  Cholesterol-free: 1.245
[1]; NCI-H292 cells, complete media
  Complete: 0.9198
[1]; [4]
  Difference: −0.33
[2]; [5]
  Cholesterol-free media + simvastatin (0.04 μM): 1.228
[2]; [6]
  Complete Media: 1.264
[2]; [7]
  Difference: 0.04

## CNC[C@H](O)[C@@H](O)[C@H](O)[C@H](O)CO.Nc1nc(-n2cc(C(=O)O)c(=O)c3cc(F)c(N4CC(O)C4)c(Cl)c32)c(F)cc1F [Delafloxacin (meglumine)]
[1]; [3]
  Cholesterol-free: 1.432
[1]; NCI-H292 cells, complete media
  Complete: 1.009
[1]; [4]
  Difference: −0.42
[2]; [8]
  Cholesterol-free media + simvastatin (0.04 μM): 1.156
[2]; [9]
  Complete Media: 0.9953
[2]; [10]
  Difference: −0.16

## CC(C)c1ccc2oc3nc(N)c(C(=O)O)cc3c(=O)c2c1 [Amlexanox]
[1]; [3]
  Cholesterol-free: 1.264
[1]; NCI-H292 cells, complete media
  Complete: 0.8551
[1]; [4]
  Difference: −0.41
[2]; [11]
  Cholesterol-free media + simvastatin (0.04 μM): 0.7766
[2]; [12]
  Complete Media: 1.161
[2]; [7]
  Difference: 0.38

## Tolterodine (tartrate)
[1]
  Cholesterol-free: 1.873
  Complete: 0.9529
  Difference: −0.92
[2]
  Cholesterol-free media + simvastatin (0.04 μM): 1.183
  Complete Media: 1.127
  Difference: −0.06

## COc1cc(C(=O)NC2CCCNC2)cc(OC)c1OC (centres unmarked) [Troxipide]
[1]; [13]
  Difference: −0.70
[1]; [14]
  Cholesterol-free: 1.812
[1]; [15]
  Complete: 1.111
[2]; [16]
  Cholesterol-free media + simvastatin (0.04 μM): 1.578
[2]; [17]
  Complete Media: 1.185
[2]; [10]
  Difference: −0.39

## CN(C)CCOC(C)(c1ccccc1)c1ccc(Cl)cc1 (centres unmarked) [Chlorphenoxamine]
[1]; [3]
  Cholesterol-free: 1.303
[1]; NCI-H292 cells, complete media
  Complete: 0.9903
[1]; [4]
  Difference: −0.31
[2]; [16]
  Cholesterol-free media + simvastatin (0.04 μM): 1.703
[2]; [17]
  Complete Media: 1.16
[2]; [10]
  Difference: −0.54

## CCCCCCCCCCCCCCCC[N+](C)(C)CCN(Cc1ccc(OC)cc1)c1ncccn1.[Br-] [Thonzonium (bromide)]
[1]; [18]
  Difference: −0.13
[1]; [19]
  Cholesterol-free: 0.179
[1]; [12]
  Complete: 0.05155
[2]; [11]
  Cholesterol-free media + simvastatin (0.04 μM): 0.2494
[2]; [12]
  Complete Media: 0.5638
[2]; [7]
  Difference: 0.31

## CCCc1nc(C(C)(C)O)c(C(=O)O)n1Cc1ccc(-c2ccccc2-c2nnn[nH]2)cc1 [Olmesartan]
[1]; [3]
  Cholesterol-free: 1.93
[1]; NCI-H292 cells, complete media
  Complete: 1.465
[1]; [4]
  Difference: −0.46
[2]; [8]
  Cholesterol-free media + simvastatin (0.04 μM): 1.131
[2]; [9]
  Complete Media: 0.942
[2]; [10]
  Difference: −0.19

## C[C@H]1C[C@H]2[C@@H]3CCC4=CC(=O)C=C[C@]4(C)[C@H]3C(=O)C[C@]2(C)[C@@]1(O)C(=O)CO [Meprednisone]
[1]; [20]
  Cholesterol-free: 0.7649
[1]; [21]
  Complete: 1.522
[1]; [22]
  Difference: 0.76
[2]; [8]
  Cholesterol-free media + simvastatin (0.04 μM): 1.224
[2]; [9]
  Complete Media: 0.9766
[2]; [10]
  Difference: −0.25

## CN(C)CCCOc1nn(Cc2ccccc2)c2ccccc12 [Benzydamine (hydrochloride)]
[1]; [3]
  Cholesterol-free: 1.444
[1]; NCI-H292 cells, complete media
  Complete: 1.002
[1]; [4]
  Difference: −0.44
[2]; [11]
  Cholesterol-free media + simvastatin (0.04 μM): 0.5074
[2]; [12]
  Complete Media: 1.108
[2]; [7]
  Difference: 0.60

## O=C(O)c1cc(=O)c2ccccc2o1 [Chromocarb]
[1]; [3]
  Cholesterol-free: 1.221
[1]; NCI-H292 cells, complete media
  Complete: 0.8012
[1]; [4]
  Difference: −0.42
[2]; [16]
  Cholesterol-free media + simvastatin (0.04 μM): 1.932
[2]; [17]
  Complete Media: 1.471
[2]; [10]
  Difference: −0.46

## Cc1ccccc1N1CCN(CCc2nnc3n2CCCC3)CC1 [Dapiprazole (hydrochloride)]
[1]; [13]
  Difference: −0.49
[1]; [14]
  Cholesterol-free: 1.532
[1]; [15]
  Complete: 1.043
[2]; [16]
  Cholesterol-free media + simvastatin (0.04 μM): 1.337
[2]; [17]
  Complete Media: 1.063
[2]; [10]
  Difference: −0.27

## CS(=O)(=O)Nc1ccc([N+](=O)[O-])cc1Oc1ccccc1 [Nimesulide]
[1]; [23]
  Difference: −0.26
[1]; [3]
  Cholesterol-free: 1.157
[1]; NCI-H292 cells, complete media
  Complete: 0.8983
[2]; [11]
  Cholesterol-free media + simvastatin (0.04 μM): 0.9827
[2]; [7]
  Difference: 0.17

## Afatinib (dimaleate)
[1]; [23]
  Difference: 0.03
[1]; [20]
  Cholesterol-free: 0.07869
[1]; [21]
  Complete: 0.1056
[2]; [11]
  Cholesterol-free media + simvastatin (0.04 μM): 0.4722
[2]; [12]
  Complete Media: 0.3193
[2]; [10]
  Difference: −0.15

## CN(C)C/C=C/C(=O)Nc1cc2c(Nc3ccc(F)c(Cl)c3)ncnc2cc1O[C@H]1CCOC1 [Afatinib]
[1]; [23]
  Difference: 0.00
[1]; [20]
  Cholesterol-free: 0.02665
[1]; [21]
  Complete: 0.0309
[2]; [5]
  Cholesterol-free media + simvastatin (0.04 μM): 0.1756
[2]; [6]
  Complete Media: 0.2197
[2]; [7]
  Difference: 0.04

## COc1cc2c3cc1Oc1c(OC)c(OC)cc4c1[C@@H](Cc1ccc(O)c(c1)Oc1ccc(cc1)C[C@@H]3N(C)CC2)N(C)CC4 [berbamine, reference compound]
[1]; NCI-H292 cells, cholesterol-free media without statin, listed as Berbamine
  Cholesterol-free: 1.275
[1]; NCI-H292 cells, complete media, listed as Berbamine
  Complete: 0.9674
[1]; complete vs cholesterol-free media, […], listed as Berbamine
  Difference: −0.31
[2]; NCI-H292 cells, FDA drug library screen, cholesterol-free media with simvastatin 0.04 μM, listed as Berbamine
  Cholesterol-free media + simvastatin (0.04 μM): 0.4924
[2]; NCI-H292 cells, FDA drug library screen, complete media, listed as Berbamine
  Complete Media: 1.667
[2]; complete media minus cholesterol-free media + simvastatin, […], listed as Berbamine
  Difference: 1.17

## C=CC[C@]1(O)CC[C@H]2[C@@H]3CCC4=CCCC[C@@H]4[C@H]3CC[C@@]21C [Allylestrenol]
[1]; Complete minus Cholesterol-free, […]
  Difference: −0.56
[1]; [14]
  Cholesterol-free: 1.739
[1]; [15]
  Complete: 1.181
[2]; NCI-H292 cells, cholesterol-free media with simvastatin 0.04 μM, […]
  Cholesterol-free media + simvastatin (0.04 μM): 1.288
[2]; NCI-H292 cells, complete media, […]
  Complete Media: 1.384
[2]; complete media minus cholesterol-free media + simvastatin, […]
  Difference: 0.10

## CC(C)[C@H]1CC[C@H](C(=O)N[C@H](Cc2ccccc2)C(=O)O)CC1 [Nateglinide]
[1]; [20]
  Cholesterol-free: 1.149
[1]; [21]
  Complete: 1.887
[1]; [22]
  Difference: 0.74
[2]; [11]
  Cholesterol-free media + simvastatin (0.04 μM): 1.052
[2]; [12]
  Complete Media: 1.823
[2]; [7]
  Difference: 0.77

## C[C@@H](NCCCc1cccc(C(F)(F)F)c1)c1cccc2ccccc12 [Cinacalcet]
[1]; [20]
  Cholesterol-free: 0.8181
[1]; [21]
  Complete: 1.378
[1]; [22]
  Difference: 0.56
[2]; [5]
  Cholesterol-free media + simvastatin (0.04 μM): 0.8605
[2]; [6]
  Complete Media: 0.9247
[2]; [7]
  Difference: 0.06

## COc1ccccc1Oc1c(NS(=O)(=O)c2ccc(C(C)(C)C)cc2)nc(-c2ncccn2)nc1OCCO [Bosentan (hydrate)]
[1]; [18]
  Difference: −0.13
[1]; [19]
  Cholesterol-free: 1.31
[1]; [12]
  Complete: 1.181
[2]; [24]
  Cholesterol-free media + simvastatin (0.04 μM): 1.256
[2]; [25]
  Complete Media: 1.269
[2]; [26]
  Difference: 0.01

## O=c1[nH]cc(F)c(=O)[nH]1 [5-Fluorouracil]
[1]; [18]
  Difference: −0.13
[1]; [19]
  Cholesterol-free: 0.4728
[1]; [12]
  Complete: 0.3401
[2]; [16]
  Cholesterol-free media + simvastatin (0.04 μM): 0.7934
[2]; [17]
  Complete Media: 0.5204
[2]; [10]
  Difference: −0.27

## CC(C)/N=c1\cc2n(-c3ccc(Cl)cc3)c3ccccc3nc-2cc1Nc1ccc(Cl)cc1 [Clofazimine]
[1]; [3]
  Cholesterol-free: 0.8398
[1]; NCI-H292 cells, complete media
  Complete: 0.4066
[1]; [4]
  Difference: −0.43
[2]; [24]
  Cholesterol-free media + simvastatin (0.04 μM): 0.9946
[2]; [25]
  Complete Media: 0.9365
[2]; [26]
  Difference: −0.06
